We go through two compounds from patent US8906909B2 (Curis, Inc., priority 2009, dated 2014).

The structures appear in SMILES notation. Where only a bound is given, the exact number is not on record here.

The target in assay [1] is T1, PI3Kδ (p110δ/p85α) (Homo sapiens, UniProt O00329).
T1 construct: N-terminal histidine-tagged recombinant full-length human p110δ; His tag (N); made in house; host or cells: Baculovirus-infected Sf9 insect cells
In words: PI3Kδ fluorescence polarization assay. It counts as biochemical. Conditions: 10 μM ATP. The procedure: The proteins are purified by one-step affinity chromatography using glutathione-agarose. […] The reaction product was then mixed with a PIP3 detector protein and the fluorescent PIP3 probe. Polarization (mP) values decrease as fluorescent probe binding to the PIP3 detector is displaced by PIP3 produced by enzymatic activity and the amount of unbound fluorescent probe in the mixture increases. Polarization degrees (mP) value was determined using microplate reader with background subtraction.
On the technique in general: In fluorescence polarisation assays a small probe gives low polarisation when free and higher when bound to something large.

In assay [2] the test system is HCT-118 cells. Put plainly: Cell proliferation assay Method A (ATPlite), HCT-118. It is filed as cell-based. Conditions: 72 hours, read-out: antiproliferative activity IC50, HCT-118. Put shortly:
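Cells seeded at 5,000–10,000 per well with graded compound concentrations and cultured 72 h in 0.5% fetal bovine serum. Growth inhibition read as cellular ATP content by firefly luciferase luminescence (ATPlite).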
(ATP-based viability assays read luminescence as a measure of living cells.)

For assay [3], the system named is SUP-B15 cells. Put plainly: Cell proliferation assay Method B, SUP-B15. It is filed as cell-based. Conditions: Homo sapiens, ALL, 72 hours, read-out: antiproliferative activity IC50, SUP-B15. The procedure: (§1) Cancer cell lines were plated at 5,000 to 10,000 per well in 96-well flat bottomed plates with various concentration of compounds. The cells were incubated with compounds for 72 hours in the presence of 0.5% of fetal bovine serum. Growth inhibition was accessed by adenosine triphosphate (ATP) content assay using Promega CellTiter-Glo kit. Promega CellTiter-Glo kit is an ATP monitoring system based on firefly luciferase. Briefly, 16 μl of mammalian cell lysis and substrate solution was added to 84 μl of culture medium per well to lyse the cells and stabilize the ATP. The mixture was shaken and incubated for 30 minutes and subsequently the luminescence was measured.

Assay [4] concerns SW1990 cells. Put plainly: Cell proliferation assay Method B, SW1990. It counts as cell-based. Conditions: Homo sapiens, Pancreas, 72 hours, read-out: antiproliferative activity IC50, SW1990. The procedure: as §1
Assay [5] deals with T-84 cells. In words: Cell proliferation assay Method B, T-84. It counts as cell-based. The conditions noted are these: Homo sapiens, T84, Colon, 72 hours, read-out: antiproliferative activity IC50, T-84. The procedure: as §1
Assay [6] has as its system OPM-2 cells. In words: Cell proliferation assay Method B, OPM-2. The conditions noted are these: Homo sapiens, Multiple Myeloma, 72 hours, read-out: antiproliferative activity IC50, OPM-2. It counts as cell-based. The procedure: as §1
The subject of assay [7] is H358 cells. In words: Cell proliferation assay Method B, H358. It counts as cell-based. Conditions: Homo sapiens, NCI-H358, NSCLC, 72 hours, read-out: antiproliferative activity IC50, H358. The procedure:
as §1

Assay [8] has as its system HCT116 cells. In words: Cell proliferation assay Method B, HCT116. It is filed as cell-based. The conditions noted are these: Homo sapiens, HCT-116, Colon, 72 hours, read-out: antiproliferative activity IC50, HCT116. The procedure: as §1
Assay [9] deals with glioblastoma xenografts. Conditions: oral dosage; Folkes et al. 2008; cited from earlier work.
Assay [10] deals with H2122 cells. In words: Cell proliferation assay Method B, H2122. The conditions noted are these: Homo sapiens, NCI-H2122, NSCLC, 72 hours, read-out: antiproliferative activity IC50, H2122. It counts as cell-based. The procedure:
as §1

Assay [11] concerns CaPan2 cells. Put plainly: Cell proliferation assay Method B, CaPan2. It counts as cell-based. The conditions noted are these: Homo sapiens, Capan-2, Pancreas, 72 hours, read-out: antiproliferative activity IC50, CaPan2. The procedure: as §1
In assay [12] the test system is PC-3 cells. In words: Cell proliferation assay Method B, PC-3. It counts as cell-based. Conditions: Homo sapiens, Prostate, 72 hours, read-out: antiproliferative activity IC50, PC-3. The procedure: as §1
Assay [13] concerns CFPAC-1 cells. In words: Cell proliferation assay Method B, CFPAC-1. It counts as cell-based. The conditions noted are these: Homo sapiens, Pancreas, 72 hours, read-out: antiproliferative activity IC50, CFPAC-1. The procedure: as §1
The subject of assay [14] is Calu6 cells. Put plainly: Cell proliferation assay Method B, Calu6. It counts as cell-based. Conditions: Homo sapiens, Calu-6, NSCLC, 72 hours, read-out: antiproliferative activity IC50, Calu6. The procedure: as §1

T1 sequence (O00329 whole entry): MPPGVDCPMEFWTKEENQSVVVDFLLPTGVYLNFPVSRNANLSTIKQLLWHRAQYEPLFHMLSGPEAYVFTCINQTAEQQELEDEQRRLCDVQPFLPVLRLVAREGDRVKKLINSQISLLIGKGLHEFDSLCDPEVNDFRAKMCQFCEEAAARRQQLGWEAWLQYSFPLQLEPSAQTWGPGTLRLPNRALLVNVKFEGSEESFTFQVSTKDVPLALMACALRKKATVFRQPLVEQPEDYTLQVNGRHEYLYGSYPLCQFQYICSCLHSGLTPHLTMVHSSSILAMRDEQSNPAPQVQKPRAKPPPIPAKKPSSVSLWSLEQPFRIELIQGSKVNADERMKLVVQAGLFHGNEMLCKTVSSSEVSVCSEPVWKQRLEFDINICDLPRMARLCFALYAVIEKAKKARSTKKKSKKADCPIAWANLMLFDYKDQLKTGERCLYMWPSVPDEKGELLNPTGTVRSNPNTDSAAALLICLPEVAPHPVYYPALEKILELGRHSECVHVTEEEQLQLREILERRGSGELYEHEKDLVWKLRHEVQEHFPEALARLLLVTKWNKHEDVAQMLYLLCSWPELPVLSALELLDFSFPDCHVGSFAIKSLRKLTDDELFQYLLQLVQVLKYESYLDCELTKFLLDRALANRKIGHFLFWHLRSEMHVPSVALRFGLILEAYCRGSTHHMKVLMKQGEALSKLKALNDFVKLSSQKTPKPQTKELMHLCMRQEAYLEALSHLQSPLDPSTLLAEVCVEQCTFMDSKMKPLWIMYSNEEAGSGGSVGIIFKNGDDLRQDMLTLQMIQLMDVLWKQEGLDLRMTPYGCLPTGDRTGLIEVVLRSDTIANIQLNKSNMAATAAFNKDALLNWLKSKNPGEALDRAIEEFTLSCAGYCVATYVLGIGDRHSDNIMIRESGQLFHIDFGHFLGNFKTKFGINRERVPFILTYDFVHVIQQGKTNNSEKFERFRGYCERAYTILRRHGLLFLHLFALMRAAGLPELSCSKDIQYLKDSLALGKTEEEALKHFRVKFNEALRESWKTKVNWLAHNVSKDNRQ
T1 sequence (P27986 whole entry partner): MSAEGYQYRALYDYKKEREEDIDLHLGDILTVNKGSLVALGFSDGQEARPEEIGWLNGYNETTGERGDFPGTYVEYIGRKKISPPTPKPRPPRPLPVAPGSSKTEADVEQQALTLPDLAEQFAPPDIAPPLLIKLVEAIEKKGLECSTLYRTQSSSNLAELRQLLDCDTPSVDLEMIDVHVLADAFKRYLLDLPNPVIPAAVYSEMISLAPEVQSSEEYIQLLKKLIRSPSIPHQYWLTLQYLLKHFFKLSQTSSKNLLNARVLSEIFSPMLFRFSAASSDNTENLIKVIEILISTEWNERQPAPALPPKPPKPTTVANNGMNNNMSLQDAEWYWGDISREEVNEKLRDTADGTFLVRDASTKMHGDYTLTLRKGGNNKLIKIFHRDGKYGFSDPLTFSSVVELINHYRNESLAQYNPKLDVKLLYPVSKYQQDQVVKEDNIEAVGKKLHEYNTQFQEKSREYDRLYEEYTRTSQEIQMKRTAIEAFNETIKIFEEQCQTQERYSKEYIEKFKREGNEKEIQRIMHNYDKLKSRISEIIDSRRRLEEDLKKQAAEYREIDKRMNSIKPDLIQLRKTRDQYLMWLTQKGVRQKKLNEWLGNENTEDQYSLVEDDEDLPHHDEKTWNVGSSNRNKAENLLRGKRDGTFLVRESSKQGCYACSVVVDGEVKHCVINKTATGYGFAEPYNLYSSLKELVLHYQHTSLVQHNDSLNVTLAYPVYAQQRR

Consider `CN(Cc1cc2nc(-c3ccc(N)cc3)nc(N3CCOCC3)c2s1)c1ncc(C(=O)NO)cn1` [Compound 150, 2-(((2-(4-aminophenyl)-4-morpholinothieno[3,2-d]pyrimidin-6-yl)methyl)(methyl)amino)-N-hydroxypyrimidine-5-carboxamide], for which the IC50 in assay [1] was below 0.1 µM; in assay [2], below 0.1 µM; in assay [3] it was below 0.01 µM.

As to `CS(=O)(=O)N1CCN(Cc2cc3nc(-c4cccc5[nH]ncc45)nc(N4CCOCC4)c3s2)CC1` [GDC-0941, reference compound], the IC50 in assay [4] was above 10 µM; in [5], 1 to 10 µM; in assay [6] it was 0.1 to 1 µM; in assay [7] it was 1 to 10 µM; in assay [8], 1 to 10 µM; in assay [10], 1 to 10 µM. Besides, the 50% inhibitory concentration (IC50) is above 10 µM in assay [11], 1 to 10 µM in assay [12], above 10 µM in assay [13] and above 10 µM in assay [14]. Further, in assay [9], the “tumor suppression in glioblastoma xenografts” value is recorded as “tumor suppression”.

The IC50 is the concentration that inhibits the measured activity by half.
